Experimental findings from patent US20260242478A1, “ANTIBODIES FOR TARGETING PSMA AND CD28 AND USES THEREOF” (Janux Therapeutics, Inc., priority 2023, published 2026) are described below.

Where no end group is shown, it is not given here.

Chain of anti-CD28 scFv (as listed by the source): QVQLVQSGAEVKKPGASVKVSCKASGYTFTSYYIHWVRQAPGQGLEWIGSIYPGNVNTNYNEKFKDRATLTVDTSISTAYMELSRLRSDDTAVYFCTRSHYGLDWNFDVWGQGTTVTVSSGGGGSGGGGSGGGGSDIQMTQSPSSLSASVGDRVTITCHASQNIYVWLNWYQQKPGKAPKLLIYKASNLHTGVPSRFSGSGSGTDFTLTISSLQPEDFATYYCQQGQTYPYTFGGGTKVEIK

The first assay has as its system anti-CD28 scFv. Kind of assay: Panning ELISA of clonal phage, anti-CD28 scFv, with or without CD28 soluble protein (Peptide-9 library). Format: binding. The note with it: Peptide-9 library, background (no anti-CD28 scFv). As to the method: Clonal phage were harvested as crude supernatants and screened via standard enzyme linked immunosorbent assays (ELISAs). […] Prior to the addition of clonal phage, wells were incubated with blocking buffer and CD28 soluble protein or blocking buffer alone. Without washing or aspirating, clonal phage supernatants were then added to the wells and incubated for a short time. Wells were then washed followed by detection of bound phage using a horse radish peroxidase conjugated anti-M13 antibody. Clonal phage of interest were then sent for sequence analysis.
A general note: In an ELISA, binding on a coated surface is turned into a signal by an enzyme label.
Phage-121 (MDWCPRDLWHVCFF) had a Background signal of 0.068.

“Phage-47 (MAWCPVYLWHECFN; not fully specified; cysteine pairing not given here)” displayed a Background signal of 0.094.

Substance “Phage-49 (MSWCPIHLWNECFN; not fully specified; cysteine pairing not given here)” displayed a Background signal of 0.083.

With Phage-432 (IDWCPIIQGLPCFA), the Background signal came out at 0.058.

Consider Phage-409 (LHWCPITMWTYCYY), for which the Background signal stood at 0.229.

In the case of “Phage-51 (MDWCPMDLWDYCFN; not fully specified; cysteine pairing not given here)”, the Background signal was 0.071.

Phage-117 (MDWCPRYLWFECFS) registered a Background signal of 0.079.

As for “Phage-50 (MDWCPPYLWNVCFS; not fully specified; cysteine pairing not given here)”, the Background signal came out at 0.063.

Turning to Phage-431 (MAWCPADQWHECFN), the Background signal was 0.076.

In the case of Phage-125 (MDWCPVSLWHVCFY), the Background signal was 0.107.

For the substance Phage-426 (MFLCPSAMWNRCFY), the Background signal stood at 0.069.

In turn, Phage-119 (MDWCPRYLWHMCYS) had a Background signal of 0.129.

As to “Phage-48 (IDWCPRYLWDECYN; not fully specified; cysteine pairing not given here)”, the Background signal was 0.061.

Take Phage-115 (MDWCPRYLWHECFN): the Background signal came to 0.105.

“Phage-45 (MDWCPRPLWHECFS; not fully specified; cysteine pairing not given here)” returned a Background signal of 0.078.

Regarding Phage-100 (MDWCPRYLWTECFN), the Background signal worked out at 0.062.

As to Phage-95 (MDWCPRFLWSECFN), the Background signal is listed as 0.062.

Phage-407 (MNWCPIHMWNQCFA) came in with a Background signal of 0.085.

The substance Phage-424 (ITQCPSTMWNRCSV) displayed a Background signal of 0.067.

Phage-109 (MDWCPKNLWHVCFN) registered a Background signal of 0.081.

“Phage-41 (MAWCPRDKWSECFS; not fully specified; cysteine pairing not given here)” returned a Background signal of 0.062.

In turn, Phage-127 (MDWCPRALWNECFA) returned a Background signal of 0.080.

For the substance Phage-135 (MDWCPKFLWHECFS), the Background signal stood at 0.065.

Take Phage-435 (MDWCPRDRWVDCYA): the Background signal stood at 0.157.

For Phage-411 (MSWCPRFMWHECFN), the Background signal was determined as 0.081.

In the case of Phage-430 (IHLCHWVPWIKCSH), the Background signal stood at 2.516.

For the substance Phage-408 (MFWCPKDMWAECFA), the Background signal turned out to be 0.099.

“Phage-43 (MDWCPRALWHECFY; not fully specified; cysteine pairing not given here)” gave a Background signal of 0.115.

With Phage-425 (MDLCPTAMWNRCFY), the Background signal stood at 0.063.

Regarding Phage-443 (MDWCPMTRWNDCYF), the Background signal is 0.081.

On to Phage-139 (MDWCPRDLWDVCFA), for which the Background signal stood at 0.096.

Regarding Phage-440 (MDWCPRDRWVDCFN), the Background signal is 0.106.

Phage-445 (MDWCPRARWHDCFF) came in with a Background signal of 0.097.

“Phage-46 (MHWCPIDLWAECYA; not fully specified; cysteine pairing not given here)”: the Background signal amounted to 0.082.

The substance Phage-401 (MDWCPLDMWVLCFA) came in with a Background signal of 0.085.

In the case of Phage-128 (MDWCPRDLWIECFF), the Background signal is 0.084.

Regarding Phage-441 (MDWCPRDRWDDCFF), the Background signal is 0.114.

Turning to Phage-412 (QHWCPRDMWNDCYA), the Background signal was 0.066.

With Phage-97 (MDWCPKDLWDYCFA), the Background signal turned out to be 0.078.

Phage-423 (INLCPTPMWNRCWL) had a Background signal of 0.119.

Phage-118 (MDWCPRHLWDECFF): the Background signal is 0.074.

With Phage-404 (MDWCPRDMWTSCFN), the Background signal was 0,100.

“Phage-58 (MHWCPIDRWADCFN; left off: large carriers)” had a Background signal of 0.074.

Substance “Phage-62 (MDWCPSYLWNECFF; left off: large carriers)” gave a Background signal of 0.065.

Phage-138 (MDWCPTNLWHECFA) came in with a Background signal of 0.061.

Phage-452 (MDWCPRDWWHMCFN): the Background signal is reported as 0.100.

For the substance Phage-122 (MDWCPRDLWDQCYA), the Background signal is recorded as 0.059.

In turn, Phage-400 (MHWCPTYMWSECFA) displayed a Background signal of 0.070.

Phage-450 (EDWCPTDVWPYCFS) registered a Background signal of 0.100.

For Phage-437 (MDWCPVDRWADCFN), the Background signal is given as 0.071.

For “Phage-52 (MDWCPINLWDECFS; not fully specified; cysteine pairing not given here)”, the Background signal was determined as 0.062.

Turning to Phage-444 (VNQCTRYRWAECLN), the Background signal was found to be 0.465.

The same assay, now with this note: background (no anti-CD28 scFv).
Take Phage-299 (MDWCPIYLWAECFN): the Background signal came out at 0.078.

Take Phage-348 (MAWCPWYLWDECFN): the Background signal came to 0.200.

Phage-359 (MDWCPRPLWHECFA): the Background signal is 0.063.

The substance Phage-344 (MDWCPRHLWVHCFS) displayed a Background signal of 0.096.

In turn, Phage-398 (MDWCPRNMWNECFF) showed a Background signal of 0.095.

Phage-320 (MDWCPTYLWNECFN) yielded a Background signal of 0.120.

In turn, Phage-349 (LDWCPRHLWALCFN) had a Background signal of 0.073.

Phage-375 (MNWCPRALWHECFL): the Background signal turned out to be 0.085.

The substance Phage-332 (IDWCPRALWDACLA) came in with a Background signal of 0.269.

Take Phage-395 (MDWCPKDMWAECFN): the Background signal worked out at 0.083.

Take Phage-317 (MDWCPRHLWHECFT): the Background signal came out at 0.103.

As to Phage-350 (MDWCPWFLWNECFN), the Background signal is 0.158.

Phage-393 (MDWCPRDMWFECFN) had a Background signal of 0.069.

Phage-343 (MDWCPRDLWTQCFF): the Background signal turned out to be 0.065.

Consider Phage-315 (MDWCPTYLWHVCFS), for which the Background signal was found to be 0.089.

Phage-357 (MDWCPRLLWHECFN) returned a Background signal of 0.071.

Take Phage-347 (MDWCPLFLWDQCFN): the Background signal was determined as 0.116.

For Phage-321 (MDWCPRDLWYVCFA), the Background signal is 0.095.

Consider “Phage-272 (MVWCMSVGWAVCLN; cysteine pairing not given here; also: large carriers left off)”, for which the Background signal turned out to be 0.289.

Phage-304 (MDWCPKFLWDECFA) had a Background signal of 0.311.

Regarding Phage-310 (MDWCPRDLWDECFN), the Background signal turned out to be 0.066.

Phage-340 (MSWCPIDLWSECFA): the Background signal came out at 0.072.

“Phage-279 (MDWCPRYLWAECFN; not fully specified; cysteine pairing not given here)” had a Background signal of 0.068.

In the case of Phage-342 (MDWCPRNLWHECFA), the Background signal was found to be 0.067.

In turn, Phage-314 (MDWCPIHLWNECFN) gave a Background signal of 0.074.

The substance Phage-367 (MDWCPSFLWYECFN) showed a Background signal of 0.063.

The substance Phage-338 (MDWCPRFLWNECFY) came in with a Background signal of 0.143.

In turn, Phage-365 (MDWCPSYLWPVCFN) had a Background signal of 0.079.

For the substance Phage-374 (MAWCPLDLWDKCFY), the Background signal amounted to 0.079.

Substance Phage-281 (MDWCPRSLWFLCFN) registered a Background signal of 1.110.

Take Phage-309 (MDWCPMFLWHECFN): the Background signal is listed as 0.170.

Substance “Phage-275 (MDWCPRDHWVDCYS; not fully specified; cysteine pairing not given here)” came in with a Background signal of 0.172.

Substance Phage-371 (MAWCPRYLWAECFF) yielded a Background signal of 0.510.

Phage-330 (MDWCPRFLWDVCFN) showed a Background signal of 0.100.

Take Phage-382 (ITWCPTSLWNRCLV): the Background signal is 0.077.

In turn, Phage-345 (MDFCPRFLWHECFN) yielded a Background signal of 0.063.

Phage-372 (MDWCPRYLWVDCFA) had a Background signal of 0.095.

Phage-391 (MDWCPFDMWADCFF) showed a Background signal of 0.063.

For the substance Phage-326 (MFWCPITLWNECFN), the Background signal is listed as 0.075.

Take Phage-378 (MHWCPLHLWNECFA): the Background signal was found to be 0.065.

Phage-291 (MDWCPRYLWHVCFY) had a Background signal of 0.227.

As for Phage-379 (MDWCPRNLWAECFS), the Background signal is listed as 0.061.

With Phage-329 (MDWCPRALWNVCFA), the Background signal was found to be 0.071.

Substance Phage-336 (MDWCPRDLWNWCFN) had a Background signal of 0.139.

Consider Phage-346 (MDWCPRHLWHACFS), for which the Background signal came out at 0.073.

On to Phage-366 (MHWCPLYLWDECFY), for which the Background signal came to 0.153.

As to Phage-394 (MDWCPRYMWSDCFF), the Background signal came to 0.082.

Take Phage-302 (MDWCPRYLWHVCFD): the Background signal was determined as 0.068.

On to Phage-334 (MDWCPRYLWDECFS), for which the Background signal stood at 0.069.

The substance Phage-362 (MDWCPRILWHECFS) came in with a Background signal of 0.064.
